Data published in PMC10044245, “Comparative Evaluation of Existing and Rationally Designed Novel Antimicrobial Peptides for Treatment of Skin and Soft Tissue Infections” (Antibiotics, 2023).
≈ marks a conversion by molar mass, not a printed value. Where a SMILES comes first, the peptide text is derived from it.

How the values were obtained:
P. aeruginosa = assay: microbe, parasite or virus in culture; format: cell-based, Pseudomonas aeruginosa; settings: 96-well plate, serial dilutions, 32 °C, 13–18 h, 200 rpm, OD 550 nm
Procedure, shortened: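 Bacteria grown with serially diluted peptides at 32 °C, 200 rpm, for 13–18 h, with OD550 read every 10 min. MIC taken as the lowest peptide concentration preventing growth.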

[1] = test system: IL-10 secretion in LPS stimulated PBMNCs; assay: IL-10 secretion by PBMNCs, ELISA; format: cell-based, human; settings: LPS and 20 μg/mL peptide, 24 h
Protocol: (§1) The effect of the peptides was evaluated in human peripheral blood mononuclear cells (PBMNCs). Blood from healthy donors was collected in Monovette vacutainers containing EDTA. Blood was collected in accordance with the approval of the Committee of Research Ethics of the Institute of Cardiology and Regenerative Medicine, University of Latvia. Blood was diluted (1:2 ratio by volume) with 0.9% sodium chloride solution supplemented with 10 U/mL heparin and mononuclear cell fraction isolated by gradient centrifugation. Diluted blood samples were layered on Ficoll-Paque solution in ratio 2:1 (GE Healthcare, Chicago, IL, USA), and density gradient centrifugation was performed at 800× g for 20 min at room temperature in a swing-out centrifuge. Mononuclear cells containing buffy coats were aspirated and washed twice with phosphate-buffered saline and centrifuged at 600× g for 20 min at room temperature. The cell pellet was suspended in DMEM medium (Sigma, D6046, Irvine, UK) supplemented with 1% penicillin (100 U/mL)–streptomycin (100 μg/mL) and 10% fetal bovine serum (Sigma, St. Louis, MO, USA), and cells were seeded on 24-well plates at a density of 5 × 10^5 cells per well and incubated at 37 °C, 5% CO2. […]
(§2) Concentrations of TNF-α and IL-10 secreted in cultivation media by PBMNCs were determined using enzyme-linked immunosorbent assay (ELISA). […]

[2] = test system: TNF-α secretion in LPS stimulated PBMNCs; assay: TNF-α secretion by PBMNCs, ELISA; format: cell-based, human; settings: 24 h
Protocol: as §1, §2

[3] = test system: BALB/c 3T3 murine fibroblast cell line; assay: Cytotoxicity, neutral red uptake assay; format: cell-based; settings: Balb/c 3T3, neutral red uptake, 48 h, tested 3.9–500 μg/mL
Procedure, shortened: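 Cells seeded at 5 × 10^3 per well, after 24 h exposed for 48 h to peptides at 3.9 to 500 μg/mL (BALB/c 3T3 in calf serum, primary human dermal fibroblasts in FBS; 37 °C, 5% CO2). Neutral red (25 µg/mL, 3 h) taken up, extracted, read at 540 nm; viability as background-corrected % of untreated control.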

C. acnes = settings: cited from earlier work
Protocol: Five AMPs were examined earlier for treatment of individual bacteria related to skin and soft tissue infections, while none of them were tested against all ESCAPE pathogens simultaneously. Peptide R1 is a direct derivate of earlier published RP551 [47], with the replacement of non-proteinogenic amino acid, ornithine (O) by lysine (K) at the positions 3,8,11, and 14.

[4] = test system: human peripheral blood mononuclear cells (PBMNCs); assay: Viability of PBMNCs, MTT reduction assay; format: cell-based; settings: 24 h, 4 and 20 μg/mL with or without 5 µg/mL LPS, n = 3
Protocol: as §1, with “temperature.” for “temperature. The cell pellet was suspended in DMEM medium (Sigma, D6046, Irvine, UK) supplemented with 1% penicillin (100 U/mL)–streptomycin (100 μg/mL) and 10% fetal bovine serum (Sigma, St. Louis, MO, USA), and cells were seeded on 24-well plates at a density of 5 × 10^5 cells per well and incubated at 37 °C, 5% CO2.”
Viability of PBMNCs after incubation with peptides was evaluated using MTT reduction assay. […] Absorption was measured at 570 nm using Tecan Infinite® 200 PRO (Tecan Group Ltd., Mannedorf, Switzerland).
Blank wells without cells were used for the background measurement. Proliferation relative to control was calculated using the equation below. […]

HaCaT keratinocytes = settings: cited from earlier work

Compound | MIC P. aeruginosa (P. aeruginosa) | increase of IL-10 secretion compared to LPS alone [1] | increase of TNF-α secretion [2] | concentrations at which cytotoxic / reduced cell viability [3] | antimicrobial activity against C. acnes (C. acnes) | reduction of PBMNC viability [4] | concentrations without cytotoxic effect (HaCaT keratinocytes)
CC[C@H](C)[C@H](NC(=O)CNC(=O)[C@H](CCCCN)NC(=O)[C@H](Cc1ccc(O)cc1)NC(=O)[C@H](CS)NC(=O)[C@@H](NC(=O)[C@H](CCCCN)NC(=O)[C@H](Cc1ccccc1)NC(=O)[C@H](CS)NC(=O)[C@H](Cc1c[nH]c2ccccc12)NC(=O)[C@@H](N)CCCNC(=N)N)C(C)C)C(=O)N[C@@H](CS)C(=O)N[C@@H](Cc1ccc(O)cc1)C(=O)N[C@@H](CCCCN)C(=O)N[C@@H](CCCCN)C(=O)N[C@@H](CS)C(=O)N[C@@H](CCCCN)C(=O)O [RP556] (H-RWCFKVCYKGICYKKCK-OH; N-terminus and C-terminus assumed) | 2 µg/mL (≈ 0.927 µM) | 35.56% | below 18.3% | only at the highest concentration | 2 to 4 µg/mL | ≤ 17.5% | –
CC(C)[C@H](N)C(=O)N[C@@H](CCCCN)C(=O)N[C@@H](CCCNC(=N)N)C(=O)N[C@@H](Cc1c[nH]c2ccccc12)C(=O)N[C@@H](CCCCN)C(=O)N[C@@H](CCCCN)C(=O)N[C@@H](Cc1c[nH]c2ccccc12)C(=O)N[C@@H](Cc1c[nH]c2ccccc12)C(=O)N[C@@H](CCCNC(=N)N)C(=O)N[C@@H](CCCCN)C(=O)N[C@@H](Cc1c[nH]c2ccccc12)C(=O)N[C@@H](CCCCN)C(=O)N[C@@H](CCCCN)C(=O)N[C@@H](Cc1c[nH]c2ccccc12)C(=O)N[C@H](C(=O)O)C(C)C [LZ1, reference compound] (H-VKRWKKWWRKWKKWV-OH) | – | – | – | 62.5 µg/mL | – | – | up to 200 μg/mL
